Key:
ZEAMX (Corn, Field) [1] = assay: Preemergence herbicidal evaluation; assay type: in vivo, Zea mays; details: rated 4-5 weeks after treatment
In short: (§1)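 Rating at 4–5 wk post-spray on a 0–9 visual scale vs control. Application: aqueous acetone, ~0.0156–0.500 kg/ha, to soil surface after seeding, preemergence.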

[2] = tested on: ECHORC (Watergrass (Calif.)); assay: Preemergence weed control under flooded paddy conditions; assay type: in vivo, Echinochloa oryzoides; details: rated 3-4 weeks after treatment
In short: (§2)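 Silt loam, seeds in top 0.5 cm; flood held 1.5-3 cm; test cpd as acetone/water 50/50 into flood water, ~0.0313-0.500 kg/ha a.i.; greenhouse 3-4 wk; visual 0-9 score vs control.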

[3] = tested on: ECHORC (Watergrass (Calif.)); assay: Postemergence weed control under flooded paddy conditions; assay type: in vivo, Echinochloa oryzoides; details: postemergence weeds, 3-4 weeks after treatment
In short: (§3)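 Weeds 3 to 5 cm tall and rice seedlings at the 1.5 to 2.5 leaf stage were flooded, with water held 1.5 to 3 cm above the soil. Compounds in 50/50 v/v aqueous/acetone went into the flood water at about 0.0313 to 0.500 kg/ha. Visual 0-9 ratings versus control were made 3 to 4 weeks later.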

CYPSE (Flatsedge) [4] = assay: as above; assay type: in vivo, Cyperus serotinus; details: postemergence weeds, 3-4 weeks after treatment
In short: as §3

SETVI (Foxtail, Green) [5] = assay: Postemergence herbicidal evaluation; assay type: in vivo, Setaria viridis; details: postemergence
In short: (§4)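 Compound is applied as a foliar spray to seedlings about two weeks old, formulated in equal parts acetone and water with 0.5% TWEEN 20 and delivered at 40 psi to give about 0.0156–0.500 kg per hectare. Injury is rated visually 0–9 after four to five weeks.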

SETVI (Foxtail, Green) [6] = assay: Preemergence herbicidal evaluation; assay type: in vivo, Setaria viridis; details: rated 4-5 weeks after treatment
In short: as §1

ORYSAT (Rice, Tebonnet) = assay: Postemergence herbicidal evaluation; assay type: in vivo, Oryza sativa, (L.) Tebonnet; details: postemergence
In short: as §4

ZEAMX (Corn, Field) [7] = assay: Postemergence herbicidal evaluation; assay type: in vivo, Zea mays; details: postemergence
In short: as §4

[8] = tested on: SAGPY (Arrowhead (Pygmaea)); assay: Postemergence weed control under flooded paddy conditions; assay type: in vivo, Sagittaria pygmaea; details: postemergence weeds, 3-4 weeks after treatment
In short: as §3

ECHCG (Barnyardgrass) = assay: Preemergence herbicidal evaluation; assay type: in vivo, Echinochloa crus-galli; details: rated 4-5 weeks after treatment
In short: as §1

[9] = tested on: TRZAWR (Wheat, Winter, cv Riband); assay: Preemergence herbicidal evaluation; assay type: in vivo, Triticum aestivum; details: rated 4-5 weeks after treatment
In short: as §1

CYPIR (Rice Flatsedge) [10] = assay: Postemergence weed control under flooded paddy conditions; assay type: in vivo, Cyperus iria; details: postemergence weeds, 3-4 weeks after treatment
In short: as §3

CYPSE (Flatsedge) [11] = assay: Preemergence weed control under flooded paddy conditions; assay type: in vivo, Cyperus serotinus; details: rated 3-4 weeks after treatment
In short: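 First, seeds or propagules go into the top 0.5 cm of silt loam; next, water is held 1.5 to 3 cm over the soil; then compound (50/50 acetone/water) is pipetted into it at about 0.0313 to 0.500 kg/ha; finally plants are rated visually 0-9 after three to four weeks.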

CYPIR (Rice Flatsedge) [12] = assay: as above; assay type: in vivo, Cyperus iria; details: rated 3-4 weeks after treatment
In short: as §2

Structure (SMILES): CCOC(=O)CN1C(=O)C(=Cc2ccccc2)SC1=Nc1cc(-n2c(=O)cc(C(F)(F)F)n(C)c2=O)c(F)cc1Cl [Compound 19, Ethyl 5-benzylidene-2-{{2-chloro-5-[3,6-dihydro-3-methyl-2,6-dioxo-4-(trifluoromethyl)-1(2H)-pyrimidinyl]-4-fluorophenyl}imino}-4-oxo-3-thiazolidineacetate]
- ZEAMX preemergence herbicidal rating (ZEAMX (Corn, Field) [1]; rate 0.1250 kg/ha): 0.0
- ZEAMX preemergence herbicidal rating (ZEAMX (Corn, Field) [1]; rate 0.2500 kg/ha): 0.0
- Herbicidal rating ECHORC ([2]; 0.1160 kg/ha): 7.0
- Herbicidal rating ECHORC ([2]; 0.2310 kg/ha): 7.0
- Herbicidal rating ECHORC ([2]; 0.4630 kg/ha): 9.0
- Herbicidal rating ECHORC ([3]; rate 0.1160 kg/ha): 7.0
- Herbicidal rating ECHORC ([3]; rate 0.2310 kg/ha): 7.0
- Herbicidal rating ECHORC ([3]; rate 0.4630 kg/ha): 9.0
- Herbicidal rating CYPSE (CYPSE (Flatsedge) [4]; rate 0.1160 kg/ha): 4.0
- Herbicidal rating CYPSE (CYPSE (Flatsedge) [4]; rate 0.2310 kg/ha): 4.0
- Herbicidal rating CYPSE (CYPSE (Flatsedge) [4]; rate 0.4630 kg/ha): 4.0
- SETVI herbicidal rating (SETVI (Foxtail, Green) [5]; rate 0.0158 kg/ha): 1.0
- SETVI herbicidal rating (SETVI (Foxtail, Green) [5]; rate 0.0315 kg/ha): 2.0
- SETVI herbicidal rating (SETVI (Foxtail, Green) [5]; rate 0.0630 kg/ha): 2.0
- SETVI preemergence herbicidal rating (SETVI (Foxtail, Green) [6]; rate 0.1250 kg/ha): 0.0
- SETVI preemergence herbicidal rating (SETVI (Foxtail, Green) [6]; rate 0.2500 kg/ha): 0.0
- ORYSAT herbicidal rating (ORYSAT (Rice, Tebonnet); rate 0.0158 kg/ha): 1.5
- ORYSAT herbicidal rating (ORYSAT (Rice, Tebonnet); rate 0.0315 kg/ha): 2.0
- ORYSAT herbicidal rating (ORYSAT (Rice, Tebonnet); rate 0.0630 kg/ha): 2.5
- ZEAMX herbicidal rating (ZEAMX (Corn, Field) [7]; rate 0.0158 kg/ha): 4.0
- ZEAMX herbicidal rating (ZEAMX (Corn, Field) [7]; rate 0.0315 kg/ha): 4.5
- ZEAMX herbicidal rating (ZEAMX (Corn, Field) [7]; rate 0.0630 kg/ha): 5.0
- Herbicidal rating SAGPY ([8]; rate 0.1160 kg/ha): 0.0
- Herbicidal rating SAGPY ([8]; rate 0.2310 kg/ha): 3.0
- Herbicidal rating SAGPY ([8]; rate 0.4630 kg/ha): 3.0
- ECHCG preemergence herbicidal rating (ECHCG (Barnyardgrass); rate 0.1250 kg/ha): 0.0
- ECHCG preemergence herbicidal rating (ECHCG (Barnyardgrass); rate 0.2500 kg/ha): 0.0
- TRZAWR preemergence herbicidal rating ([9]; rate 0.1250 kg/ha): 0.0
- TRZAWR preemergence herbicidal rating ([9]; rate 0.2500 kg/ha): 0.0
- Herbicidal rating CYPIR (CYPIR (Rice Flatsedge) [10]; rate 0.1160 kg/ha): 0.0
- Herbicidal rating CYPIR (CYPIR (Rice Flatsedge) [10]; rate 0.2310 kg/ha): 0.0
- Herbicidal rating CYPIR (CYPIR (Rice Flatsedge) [10]; rate 0.4630 kg/ha): 0.0
- Herbicidal rating CYPSE (CYPSE (Flatsedge) [11]; 0.1160 kg/ha): 4.0
- Herbicidal rating CYPSE (CYPSE (Flatsedge) [11]; 0.2310 kg/ha): 4.0
- Herbicidal rating CYPSE (CYPSE (Flatsedge) [11]; 0.4630 kg/ha): 4.0
- Herbicidal rating CYPIR (CYPIR (Rice Flatsedge) [12]; 0.1160 kg/ha): 0.0
- Herbicidal rating CYPIR (CYPIR (Rice Flatsedge) [12]; 0.2310 kg/ha): 0.0
- Herbicidal rating CYPIR (CYPIR (Rice Flatsedge) [12]; 0.4630 kg/ha): 0.0

Structure (SMILES): CCOC(=O)CN1C(=O)CO/C1=N/c1cc(-n2c(=O)cc(C(F)(F)F)n(C)c2=O)c(F)cc1Cl [Compound 22, Ethyl 2-{{2-chloro-5-[3,6-dihydro-3-methyl-2,6-dioxo-4-(trifluoromethyl)-1(2H)-pyrimidinyl]-4-fluorophenyl}imino}-4-oxo-3-oxazolidineacetate]
- ZEAMX preemergence herbicidal rating (ZEAMX (Corn, Field) [1]; rate 0.0156 kg/ha): 2.0
- ZEAMX preemergence herbicidal rating (ZEAMX (Corn, Field) [1]; rate 0.0313 kg/ha): 5.0
- ZEAMX preemergence herbicidal rating (ZEAMX (Corn, Field) [1]; rate 0.0625 kg/ha): 7.0
- ZEAMX preemergence herbicidal rating (ZEAMX (Corn, Field) [1]; rate 0.1250 kg/ha): 8.0
- ZEAMX preemergence herbicidal rating (ZEAMX (Corn, Field) [1]; rate 0.2500 kg/ha): 9.0
- Herbicidal rating ECHORC ([2]; 0.1160 kg/ha): 6.0
- Herbicidal rating ECHORC ([2]; 0.2310 kg/ha): 9.0
- Herbicidal rating ECHORC ([2]; 0.4630 kg/ha): 9.0
- Herbicidal rating ECHORC ([3]; rate 0.1160 kg/ha): 6.0
- Herbicidal rating ECHORC ([3]; rate 0.2310 kg/ha): 9.0
- Herbicidal rating ECHORC ([3]; rate 0.4630 kg/ha): 9.0
- Herbicidal rating CYPSE (CYPSE (Flatsedge) [4]; rate 0.1160 kg/ha): 4.0
- Herbicidal rating CYPSE (CYPSE (Flatsedge) [4]; rate 0.2310 kg/ha): 4.0
- Herbicidal rating CYPSE (CYPSE (Flatsedge) [4]; rate 0.4630 kg/ha): 4.0
- SETVI herbicidal rating (SETVI (Foxtail, Green) [5]; rate 0.0158 kg/ha): 3.0
- SETVI herbicidal rating (SETVI (Foxtail, Green) [5]; rate 0.0315 kg/ha): 5.0
- SETVI herbicidal rating (SETVI (Foxtail, Green) [5]; rate 0.0630 kg/ha): 7.0
- SETVI preemergence herbicidal rating (SETVI (Foxtail, Green) [6]; rate 0.0156 kg/ha): 0.0
- SETVI preemergence herbicidal rating (SETVI (Foxtail, Green) [6]; rate 0.0313 kg/ha): 7.0
- SETVI preemergence herbicidal rating (SETVI (Foxtail, Green) [6]; rate 0.0625 kg/ha): 9.0
- SETVI preemergence herbicidal rating (SETVI (Foxtail, Green) [6]; rate 0.1250 kg/ha): 9.0
- SETVI preemergence herbicidal rating (SETVI (Foxtail, Green) [6]; rate 0.2500 kg/ha): 9.0
- ORYSAT herbicidal rating (ORYSAT (Rice, Tebonnet); rate 0.0158 kg/ha): 2.5
- ORYSAT herbicidal rating (ORYSAT (Rice, Tebonnet); rate 0.0315 kg/ha): 3.0
- ORYSAT herbicidal rating (ORYSAT (Rice, Tebonnet); rate 0.0630 kg/ha): 4.5
- ZEAMX herbicidal rating (ZEAMX (Corn, Field) [7]; rate 0.0158 kg/ha): 7.0
- ZEAMX herbicidal rating (ZEAMX (Corn, Field) [7]; rate 0.0315 kg/ha): 7.5
- ZEAMX herbicidal rating (ZEAMX (Corn, Field) [7]; rate 0.0630 kg/ha): 7.5
- Herbicidal rating SAGPY ([8]; rate 0.1160 kg/ha): 4.0
- Herbicidal rating SAGPY ([8]; rate 0.2310 kg/ha): 4.0
- Herbicidal rating SAGPY ([8]; rate 0.4630 kg/ha): 5.0
- ECHCG preemergence herbicidal rating (ECHCG (Barnyardgrass); rate 0.0156 kg/ha): 0.0
- ECHCG preemergence herbicidal rating (ECHCG (Barnyardgrass); rate 0.0313 kg/ha): 0.0
- ECHCG preemergence herbicidal rating (ECHCG (Barnyardgrass); rate 0.0625 kg/ha): 0.0
- ECHCG preemergence herbicidal rating (ECHCG (Barnyardgrass); rate 0.1250 kg/ha): 3.0
- ECHCG preemergence herbicidal rating (ECHCG (Barnyardgrass); rate 0.2500 kg/ha): 9.0
- TRZAWR preemergence herbicidal rating ([9]; rate 0.0156 kg/ha): 0.0
- TRZAWR preemergence herbicidal rating ([9]; rate 0.0313 kg/ha): 0.0
- TRZAWR preemergence herbicidal rating ([9]; rate 0.0625 kg/ha): 1.0
- TRZAWR preemergence herbicidal rating ([9]; rate 0.1250 kg/ha): 5.0
- TRZAWR preemergence herbicidal rating ([9]; rate 0.2500 kg/ha): 7.0
- Herbicidal rating CYPIR (CYPIR (Rice Flatsedge) [10]; rate 0.1160 kg/ha): 0.0
- Herbicidal rating CYPIR (CYPIR (Rice Flatsedge) [10]; rate 0.2310 kg/ha): 0.0
- Herbicidal rating CYPIR (CYPIR (Rice Flatsedge) [10]; rate 0.4630 kg/ha): 5.0
- Herbicidal rating CYPSE (CYPSE (Flatsedge) [11]; 0.1160 kg/ha): 4.0
- Herbicidal rating CYPSE (CYPSE (Flatsedge) [11]; 0.2310 kg/ha): 4.0
- Herbicidal rating CYPSE (CYPSE (Flatsedge) [11]; 0.4630 kg/ha): 4.0
- Herbicidal rating CYPIR (CYPIR (Rice Flatsedge) [12]; 0.1160 kg/ha): 0.0
- Herbicidal rating CYPIR (CYPIR (Rice Flatsedge) [12]; 0.2310 kg/ha): 0.0
- Herbicidal rating CYPIR (CYPIR (Rice Flatsedge) [12]; 0.4630 kg/ha): 5.0
